# Reference: patent publication US20210100777A1, “HEAT SHOCK PROTEIN (HSP) INHIBITION AND MONITORING EFFECTIVENESS THEREOF” (H. LEE MOFFITT CANCER CENTER AND RESEARCH INSTITUTE, INC., priority 2013, published 2021)
# Entries after “also recorded” stand apart in the source; their conditions may differ.
# Columns and labels:
# HSPs in 8226/LR5 cells = test: DI-MRM relative quantification of HSPs after 17-DMAG (Example 2); assay type: cell-based, human; conditions: for CDC37 Fold Change, DI-MRM / HS90A Fold Change, DI-MRM / HS90B Fold Change, DI-MRM / HSP7C Fold Change, DI-MRM / HSP7E Fold Change, DI-MRM / HSP71 Fold Change, DI-MRM / HSP74 Fold Change, DI-MRM / HSPA5 Fold Change, DI-MRM / HSP90α Fold Change, DI-MRM: 8226/LR5, 50 nM, 24 hrs vs. control
# Experimental: Synthesis and DI MRM of Standard Peptides. Standard peptides were synthesized and characterized as described previously (Remily-Wood et al., Proteomics Clin. Appl. 5:383-96 (2011)). An automated chip-based nanoelectrospray ion source, (NanoMate100, Advion BioSciences, Ithaca, N.Y.), was mounted on a triple quadrupole mass spectrometer (TSQ Vantage, Thermo, San Jose, Calif.). […] (SEQ ID NO:17) were diluted to 1 μM in 50% aqueous ACN with 0.1% formic acid. For synthetic peptide infusion, the spray voltage was tuned between 1.5 and 1.9 kV for stable ion signal. The gas pressure was set to 0.3 psi. Data were acquired at 20 ms per transition for 2 minutes using m/z 0.002 scan widths. The quadrupole resolution values were modulated from 0.2 to 0.7. […]
# Cell Culture, Lysis, and HSP Sample Preparation for Mass Spectrometry. RPMI-8226 and 8226/LR5 cells were maintained as previously described (Bellamy et al., Cancer Res. 51:995-1002 (1991); Remily-Wood et al., Proteomics Clin. Appl. 5:383-96 (2011)). The heat shock protein 90 inhibitor, 17-desmethoxy-17-N,N-dimethylaminoethylamino-geldanamycin (17-DMAG), was dissolved in DMSO (100 μM stock). Based on prior IC50 measurements, the RPMI-8226 cells were treated with 100 nM 17-DMAG for 24 hours, and 8226/LR5 cells were treated with 50 nM 17-DMAG. Cells (n=10^6) were lysed using in aqueous 100 mM ammonium bicarbonate containing 8M urea for protein denaturation. Protein concentrations were measured by Bradford assays; consistent aliquots of total protein (380 ng) were injected for LC-MRM, and the same solutions were used for DI-MRM. Digestion, addition of SIS peptides, and mass spectrometry sample preparation were performed as described for standard proteins.
# Calculation of Correction Factors to Account for Interference in DI MRM. […] To evaluate the ability to eliminate these contributions, correction factors were calculated based on LC-MRM data using the following set of equations (Equations 1 and 2): […]
# M229R xenografts = test: Xenograft experiment; assay type: in vivo, BALB SCID mice; conditions: 100 mg/kg, PO, 3× week, 15 days
# Experimental: (§1) Xenograft experiments. BALB SCID mice (The Jackson Laboratory, Bar Harbor, Me.) were subcutaneously injected with 2.5×10^6 cells per mouse (resuspended in 111 μL L-15 media, 10 mM HEPES, 37.5 μL Matrigel). Tumors were grown to approximately 100 mm^3 prior to dosing. Mice were treated with either 100 mg XL888/kg (n=5) or an equivalent volume of vehicle (10 mM HCl), 3 times per week by oral gavage. Mouse weights and tumor volumes (L×W2/2) were measured 3 times per week. Upon completion of the experiment, vehicle and drug treated tumor biopsies were processed for LC-MRM analysis (as above).
# intratumoral HSP70 = test: LC-MRM analysis of xenograft samples; assay type: in vivo, BALB SCID mice; conditions: 15-days of treatment, 100 mg/kg
# Experimental: Liquid chromatography, multiple reaction monitoring mass (LC-MRM) spectrometry (LC MRM) analysis. LC-MRM was performed as described in (Remily-Wood et al., Proteomics Clin. App. 5:383-96 (2011)). Protein expression was determined using the ratio of peak area of the native peptide to corresponding internal standard; normalization of tissue results was performed using GAPDH to control for cellularity (Table 9). Data were then normalized to the pretreatment (cell lines) or vehicle controls (tissue) and plotted to show the changes in expression after drug treatment.
# as §1
# [1] = test system: matched pairs of vemurafenib naïve and resistant melanoma cell lines and melanoma cell lines with intrinsic resistance; test: Growth inhibition, MTT assay; assay type: cell-based
# Experimental: Growth inhibition. Cells were plated at a density of 2.5×10^4 cells per ml and left to grow overnight before being treated with increasing concentrations of vemurafenib or XL888. After 72 hours, the levels of growth inhibition were examined using the MTT assay (Smalley et al., Br. J. Cancer 96:445-9 (2007)). […] Vemurafenib and XL888 were dissolved in 100% DMSO and stored at −20° C. as a 10 mM solution.
# Statistical analysis of GI50 values. Triplicate experiments were performed for each cell line under each drug treatment. To estimate the IC50 values for each cell line for each treatment, a 4-parameter Hill equation was used to model the nonlinear sigmoid relationship between the drug concentration and % cell survival. Briefly,
# where x is the drug concentration, y is the % survival, ε is the error term. The four parameters in the model to estimate are: 1) the control-level effect (E); 2) the background-level effect (B); 3) the median effect concentration (GI50); and 4) the strength of the inhibition (m). The constraint of non-negative minimum background effect (B) is imposed so the model is biologically meaningful. Levenberg-Marquardt algorithm for nonlinear least squares was used to fit the model and estimate all four parameters for each cell line under each treatment. Estimated concentration at 50% cell survival, i.e., IC50, is estimated using the plugged-in parameters after model fitting. Note that when the control and background effects are 100% and 0%, respectively, the estimated GI50 and IC50 values would be identical. To compare the estimated IC50 values between the resistance and naïve paired of cell lines, after log transformation, a paired t-test was performed for each drug.
# [2] = all LC-MRM transitions, interference-corrected
# [3] = noise corrected, only transitions below 40% interference
smiles,measurement,setting,value
"CO[C@H]1/C=C\C=C(/C)C(=O)NC2=CC(=O)C(NCCN(C)C)=C(C[C@@H](C)C[C@H](OC)[C@H](O)[C@@H](C)/C=C(\C)[C@@H]1OC(N)=O)C2=O [17-DMAG, 17-Dimethylaminoethylamino-17-demethoxygeldanamycin]","CDC37 Fold Change, DI-MRM",HSPs in 8226/LR5 cells; [2],1.24
same,"HS90A Fold Change, DI-MRM",HSPs in 8226/LR5 cells; [2],1.12
same,"HS90B Fold Change, DI-MRM",HSPs in 8226/LR5 cells; [2],1.23
same,"HSP7C Fold Change, DI-MRM",HSPs in 8226/LR5 cells; [2],0.94
same,"HSP7E Fold Change, DI-MRM",HSPs in 8226/LR5 cells; [2],0.93
same,"HSP71 Fold Change, DI-MRM",HSPs in 8226/LR5 cells; [2],5.50
same,"HSP74 Fold Change, DI-MRM",HSPs in 8226/LR5 cells; [2],1.33
same,"HSPA5 Fold Change, DI-MRM",HSPs in 8226/LR5 cells; [2],0.86
same,"CDC37 Fold Change, DI-MRM",HSPs in 8226/LR5 cells; [3],1.35
same,"HS90A Fold Change, DI-MRM",HSPs in 8226/LR5 cells; [3],1.14
same,"HS90B Fold Change, DI-MRM",HSPs in 8226/LR5 cells; [3],1.23
same,"HSP7C Fold Change, DI-MRM",HSPs in 8226/LR5 cells; [3],1.14
same,"HSP7E Fold Change, DI-MRM",HSPs in 8226/LR5 cells; [3],1.05
same,"HSP71 Fold Change, DI-MRM",HSPs in 8226/LR5 cells; [3],5.51
same,"HSP74 Fold Change, DI-MRM",HSPs in 8226/LR5 cells; [3],1.41
same,"HSPA5 Fold Change, DI-MRM",HSPs in 8226/LR5 cells; [3],0.90
same,"HSP90α Fold Change, DI-MRM",HSPs in 8226/LR5 cells; y3 (Least Interference),0.76
same,"HSP90α Fold Change, DI-MRM",HSPs in 8226/LR5 cells; y3-y5 (DI-MRM Interference-Corrected),1.14
same,"HSP90α Fold Change, DI-MRM",HSPs in 8226/LR5 cells; y3-y5 (Selected Transitions),1.13
same,"HSP90α Fold Change, DI-MRM",HSPs in 8226/LR5 cells; y3-y6 (DI-MRM Interference-Corrected),1.12
same,"changes in expression of HSP90α, DI-MRM","HSPs in 8226/LR5 cells; 8226/LR5, 24 hours after treatment",1.1 fold
"CC[C@@H](C)Nc1cc(C(=O)N[C@@H]2C[C@H]3CC[C@@H](C2)N3c2ccc(C(=O)C3CC3)cn2)c(C)cc1C(N)=O [XL888, 5-((R)-sec-butylamino)-N1-((1R,3s,5S)-8-(5-(cyclopropanecarbonyl)pyridin-2-yl)-8-azabicyclo[3.2.1]octan-3-yl)-2-methylterephthalamide]",regression of established M229R xenografts,M229R xenografts,significantly induce the regression; also recorded: significant levels of tumor regression
same,increase in intratumoral HSP70 expression compared to controls,intratumoral HSP70,8.6 fold
same,growth of the cell lines,"[1]; 1 nM-10 μM, 72 hours, MTT",dose dependent decreases in the growth of all the cell lines
same,difference in growth inhibition / IC50 between naïve and resistant pairs of cell lines,"[1]; M229/M229R, M249/M249R, WM164/WM164R, 1205Lu/1205LuR, paired t-test",no significant difference in IC50 values
